According to BindingDB's records for patent US20240308995 (Biogen Ma, 2024):
pIC50: −log10 of the molar value.

Target: T1, Protein O-GlcNAcase (Homo sapiens, UniProt O60502)
T1 sequence (O60502 whole entry): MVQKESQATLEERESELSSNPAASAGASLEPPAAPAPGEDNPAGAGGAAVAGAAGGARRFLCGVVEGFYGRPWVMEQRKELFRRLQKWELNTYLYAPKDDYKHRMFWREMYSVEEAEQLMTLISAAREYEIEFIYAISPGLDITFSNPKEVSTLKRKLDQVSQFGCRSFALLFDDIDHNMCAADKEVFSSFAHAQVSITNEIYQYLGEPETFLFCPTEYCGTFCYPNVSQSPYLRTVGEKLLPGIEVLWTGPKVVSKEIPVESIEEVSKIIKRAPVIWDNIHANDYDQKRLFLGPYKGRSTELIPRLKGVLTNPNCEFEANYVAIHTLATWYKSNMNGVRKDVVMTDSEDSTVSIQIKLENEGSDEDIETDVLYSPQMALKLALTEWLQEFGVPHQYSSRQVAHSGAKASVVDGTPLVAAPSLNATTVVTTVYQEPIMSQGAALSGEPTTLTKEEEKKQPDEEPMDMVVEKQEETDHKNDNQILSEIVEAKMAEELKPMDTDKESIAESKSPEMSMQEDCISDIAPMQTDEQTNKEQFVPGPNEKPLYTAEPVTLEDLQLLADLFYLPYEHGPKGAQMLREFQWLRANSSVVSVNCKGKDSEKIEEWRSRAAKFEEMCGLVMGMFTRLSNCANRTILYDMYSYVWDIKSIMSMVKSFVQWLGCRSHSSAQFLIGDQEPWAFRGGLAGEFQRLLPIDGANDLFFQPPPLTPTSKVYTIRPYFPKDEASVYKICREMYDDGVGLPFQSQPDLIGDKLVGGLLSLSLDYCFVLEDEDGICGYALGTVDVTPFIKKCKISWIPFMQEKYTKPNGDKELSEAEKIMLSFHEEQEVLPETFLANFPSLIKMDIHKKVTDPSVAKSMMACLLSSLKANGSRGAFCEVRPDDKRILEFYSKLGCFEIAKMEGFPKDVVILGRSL
Test: Enzyme Inhibition Biochemical Assay
Experimental: Recombinant full length human OGA enzyme was purchased from Origene. 4-MUGlcNAc substrate was purchased from Sigma. All other reagents were purchased from Sigma or Fisher. Assay buffer consists of the McIlvaine buffer system, pH 6.4 (0.2M Na2HPO4 mixed with 0.1M citric acid) and 0.01% BSA. […] Reactions were incubated for 90 minutes at room temperature and quenched with 40 μl of 3M glycine, pH 10 and read on a Perkin Elmer Envision plate reader (Ex: 355 nm/Em: 460 nm). Compounds were tested with a 10-point dose-response starting from 20 μM with a 4-fold dilution. Data was fit using GraphPad Prism using a 4-parameter fit with variable slope.

pIC50: > 9.00
SMILES: CC(=O)Nc1ncc(CN2C[C@H](Oc3cc(=O)n(C)cn3)C[C@@H]2C)s1 [US20240308995, Example 1-70]
